# Laboratory results from ChEMBL document CHEMBL1144274, “Novel spiroanellated 1,2,4-trioxanes with high in vitro antimalarial activities” (Bioorg Med Chem Lett, 2005).
# What was measured:
# [1] = In vitro cytotoxicity against mammalian L-6 cell line; assay type: functional, cell-based; conditions: L6
# [2] = test system: Plasmodium falciparum; test: In vitro inhibition of Plasmodium falciparum K1 (0.0024 ug/mL); assay type: functional, organism-based
# [3] = test system: Plasmodium falciparum; test: In vitro inhibition of Plasmodium falciparum K1 (0.00065 ug/mL); assay type: functional, organism-based
# [4] = test system: Plasmodium falciparum; test: In vitro inhibition of Plasmodium falciparum K1 (0.0088 ug/mL); assay type: functional, organism-based
# [5] = test system: Plasmodium falciparum; test: In vitro inhibition of Plasmodium falciparum K1 (0.00054 ug/mL); assay type: functional, organism-based
# [6] = test system: Plasmodium falciparum; test: In vitro inhibition of Plasmodium falciparum K1 (0.2253 ug/mL); assay type: functional, organism-based
# [7] = test system: Plasmodium falciparum; test: In vitro inhibition of Plasmodium falciparum K1 (0.0013 ug/mL); assay type: functional, organism-based
# [8] = test system: Plasmodium falciparum; test: In vitro inhibition of Plasmodium falciparum K1 (0.0008 ug/mL); assay type: functional, organism-based
smiles,measurement,setting,value
C=C(C)[C@@H]1OOC2(CCCC2)O[C@H]1C(C)C,IC50,[1],0.82 µg/mL
same,IC50,[2],10.6 nM
C=C(C)[C@@H]1OOC2(CCCCC2)O[C@H]1C,IC50,[3],3.1 nM
same,IC50,[1],0.46 µg/mL
C=C(C)[C@@H]1OOC2(CCCC2)O[C@H]1C(C)(C)C,IC50,[1],3.7 µg/mL
same,IC50,[4],36.6 nM
C=C(C)C1OO[C@]2(O[C@H]1C1CC1)[C@H]1CC3C[C@@H](C1)C[C@H]2C3 (stereo partly drawn),IC50,[5],1.9 nM
same,IC50,[1],0.74 µg/mL
C=C(C)[C@@H]1OOC(C)(C)O[C@H]1C,IC50,[6],1310 nM
C=C(C)C1OO[C@]2(O[C@H]1C)[C@H]1CC3C[C@@H](C1)C[C@H]2C3 (stereo partly drawn),IC50,[1],1.7 µg/mL
same,IC50,[7],4.9 nM
O[C@H](c1cc(C(F)(F)F)nc2c(C(F)(F)F)cccc12)[C@@H]1CCCCN1 [MEFLOQUINE],IC50,[1],1.9 µg/mL
C[C@@H]1CC[C@H]2[C@@H](C)C(=O)O[C@@H]3O[C@@]4(C)CC[C@@H]1[C@]32OO4 [ARTEMISININ],IC50,[8],2.8 nM
